PMC5789847, “Bismuth antimicrobial drugs serve as broad-spectrum metallo-β-lactamase inhibitors” (Nature Communications, 2018)
“And” between values parts separate entries of the source, which are not always exact repeats. Equal values may be shown once.

Tests used:
[1] = biological target: T1, NDM-1 (Klebsiella pneumoniae, UniProt C7C422); assay type: biochemical; conditions: MER substrate
Procedure: (§1) Freshly prepared 50 nM of Zn2-NDM-1, Zn2-VIM-2, or Zn2-IMP-4 in 50 mM HEPES/Na pH 7.0, 100 mM NaCl were first incubated with various concentrations of CBS for 1 h at 25 °C, then mixed with equal volume of 0.2 mM MER. The assay was performed in a 1 cm quartz cuvette using the kinetic mode on a Varian Cary50 UV-visible spectrophotometer at 25 °C. The decrease in absorbance at 300 nm due to ring-opening of MER was monitored every second for a duration of 10 min until the reaction was completed. The initial rates were extracted and calculated from each reaction curves for fitting IC50 curves.

[2] = biological target: VIM-2 (Escherichia coli, UniProt Q5U7L7); assay type: biochemical; conditions: MER substrate
Procedure: as §1

[3] = biological target: IMP-4; assay: IC50 enzyme inhibition assay; assay type: biochemical; conditions: MER substrate
Procedure: as §1

[4] = tested on: NDM-K. pneumonia (NDM-1^+); assay: Microdilution MIC/MBC and checkerboard assay; assay type: cell-based, Klebsiella pneumonia
[5] = biological target: NDM-1-C208A (Klebsiella pneumoniae, UniProt C7C422, C208A); assay: Cellular thermal shift assay, mutant strain C208A-Rosetta; assay type: cell-based, E. coli; conditions: control 48.24 °C
NDM-1-C208A, sequence (C7C422 29-270 C208A): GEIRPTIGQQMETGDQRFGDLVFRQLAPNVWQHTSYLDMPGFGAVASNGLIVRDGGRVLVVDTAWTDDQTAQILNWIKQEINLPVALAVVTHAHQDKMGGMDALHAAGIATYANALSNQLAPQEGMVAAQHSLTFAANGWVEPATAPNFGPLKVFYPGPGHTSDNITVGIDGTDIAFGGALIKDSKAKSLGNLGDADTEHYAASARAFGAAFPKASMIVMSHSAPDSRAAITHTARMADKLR

[6] = biological target: T1, NDM-1; assay: Zinc displacement analysis by ICP-MS; assay type: binding; conditions: Zn-bound NDM-1 20 μM + increasing CBS
Procedure: To monitor the displacement of Zn(II) by Bi(III), ICP-MS was employed to accurately quantify ^209Bi and ^66Zn contents in various purified NDM-1 samples. Purified Zn-bound-NDM-1 (20 μM) dissolved in trace-metal-free ICP-MS buffer containing 50 mM HEPES, pH 7.0, was incubated with various concentrations of CBS at 25 °C for 5 h with mild shaking. The samples were subsequently dialyzed in ICP-MS buffer to remove unbound-metal ions and were then acidified and subsequently analyzed using an ICP-MS spectrometer (Agilent 7500a, Agilent Technologies, CA, USA) with ^115In as an internal standard for ^209Bi, ^66Zn, and ^34S contents, which are used to quantify protein concentration.

[7] = tested on: NDM-HK; assay: Time kill assay; assay type: cell-based, E. coli; conditions: MER 24 μg mL^-1 + CBS 64 μg mL^-1, 24 h, exponential phase
Procedure: Time kill assay was used to further explore the synergy between MER and Bi(III) compounds. In a typical assay, NDM-HK was cultured overnight and diluted 1:250 into LB broth at 37 °C for 3 h to reach log phase. The initial bacterial density was adjusted to ~10^7 CFU mL^−1 and then exposed to MER, Bi(III) compounds either alone or in combination. LB broth with no drugs served as a control. Aliquots of bacterial suspension were withdrawn at different time intervals (0, 1, 2, 4, 6, 8, and 24 h) for inspection of bacterial viability by agar plating. The concentrations of the drugs used in the test are 24 µg mL^−1 for MER, 64 µg mL^−1 for CBS, and 32 µg mL^−1 for Bi(NAC)3. Data from three independent experiments were averaged and plotted as log10 CFU mL^−1 vs. time (h) for each time point over 24 h. All assays were triplicated and performed three times on different days.

[8] = tested on: C208A-Rosetta; assay: Microdilution MIC assay; assay type: cell-based, E. coli; conditions: C208A-Rosetta
Procedure: For the test of C208A-Rosetta, the growth condition briefly goes as follow. Overnight culture of C208A-Rosetta was diluted into fresh LB medium (1000-fold) and regrew to OD ~0.6. The overexpression of NDM-1-C208A was induced by addition of 200 μM isopropyl β-D-1-thiogalactopyranoside (IPTG) for 18 h at 25 °C. The following susceptibility test was performed as described in the Microdilution MIC and MBC assay section in the methodology by using the resulting bacterial pellets with the supplementation of 200 μM IPTG.
Other procedures were kept strictly the same.

T1 sequence (C7C422 29-270, looked up, species assumed): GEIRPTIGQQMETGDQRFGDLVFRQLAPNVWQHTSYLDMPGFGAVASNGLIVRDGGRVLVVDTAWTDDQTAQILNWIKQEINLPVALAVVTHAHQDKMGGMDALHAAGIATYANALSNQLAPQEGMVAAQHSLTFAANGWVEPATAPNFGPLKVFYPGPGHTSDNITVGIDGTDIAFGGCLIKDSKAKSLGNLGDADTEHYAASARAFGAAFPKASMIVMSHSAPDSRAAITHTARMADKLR

colloidal bismuth subcitrate [CBS]
IC50 ([1]; NDM-1 50 nM, 1 h preincubation): 2.81 ± 0.34 µM
maximal inhibition of MBL activity ([1]; NDM-1, dose-dependent): approximately 90%
IC50 ([2]; VIM-2 50 nM, 1 h preincubation): 3.54 µM and 3.55 µM
maximal inhibition of MBL activity ([2]; VIM-2, dose-dependent): approximately 90%
IC50 ([3]; IMP-4 50 nM, 1 h preincubation): 0.7 ± 0.08 µM
maximal inhibition of MBL activity ([3]; IMP-4, dose-dependent): approximately 90%
MBC of MER in combination with compound at 32 µg mL^-1 ([4]; NDM-K. pneumonia (NDM-KP)): 8 µg/mL
MIC of MER in combination with compound at 32 µg mL^-1 ([4]; NDM-K. pneumonia (NDM-KP)): 4 µg/mL
MBC of Bi(III) compound alone ([4]; NDM-KP): > 256 µg/mL
MIC of Bi(III) compound alone ([4]; NDM-KP): > 256 µg/mL
FICI ([4]; NDM-KP, MER + compound, 256 µg mL^-1 set as MIC of Bi(III)): 0.375
melting temperature, treated group [5]: 49.72 °C
Bi(III) bound to the enzyme [6]: 0.96 molar equivalents
Zn(II) displaced from NDM-1 [6]: ca. 2.13 molar equivalents
lowering of NDM-HK population in time kill curves [7]: more than 1000 fold
MIC of MER in combination with CBS at 16 µg mL-1 [8]: 0.12 µg/mL
MIC of MER in combination with CBS at 32 µg mL-1 [8]: 0.12 µg/mL
